Measured values taken from US10023601B2, “Hydrolysis resistant sialic acid derivatives and methods for their use” (The University of British Columbia, priority 2014, dated 2018).
Counter-ions that a name gives are not always drawn. Like-named read-outs stand apart in the source and are kept apart here.

Tests used:
[1] = Spontaneous hydrolysis of CMP 7-modified sialic acids by 1H-NMR; assay type: physicochemical
Cst-I = Cst-I (Campylobacter jejuni, UniProt Q9RGF1)
Pm0188h = target: T1, Pm0188h (Pasteurella multocida, UniProt Q15KI8); test: Sialyltransferase kinetics, CMP release assay, transfer to lactose by Pm0188h
T1 sequence (Q15KI8 26-412): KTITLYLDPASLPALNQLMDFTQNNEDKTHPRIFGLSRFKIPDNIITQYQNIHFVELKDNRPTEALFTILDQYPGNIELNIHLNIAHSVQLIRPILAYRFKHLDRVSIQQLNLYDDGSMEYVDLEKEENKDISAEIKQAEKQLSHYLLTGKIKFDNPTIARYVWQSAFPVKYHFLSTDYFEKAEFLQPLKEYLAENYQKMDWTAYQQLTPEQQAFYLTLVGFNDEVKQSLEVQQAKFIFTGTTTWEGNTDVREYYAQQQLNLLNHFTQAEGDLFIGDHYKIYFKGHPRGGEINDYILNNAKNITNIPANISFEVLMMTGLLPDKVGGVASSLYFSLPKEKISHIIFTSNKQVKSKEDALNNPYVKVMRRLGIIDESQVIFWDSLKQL

[2] = target: C. perfringens (GH33) sialidase (NanI) (Clostridium perfringens, UniProt A0A0H2YQR1); assay type: biochemical
C. perfringens (GH33) sialidase (NanI), sequence (A0A0H2YQR1 1-694): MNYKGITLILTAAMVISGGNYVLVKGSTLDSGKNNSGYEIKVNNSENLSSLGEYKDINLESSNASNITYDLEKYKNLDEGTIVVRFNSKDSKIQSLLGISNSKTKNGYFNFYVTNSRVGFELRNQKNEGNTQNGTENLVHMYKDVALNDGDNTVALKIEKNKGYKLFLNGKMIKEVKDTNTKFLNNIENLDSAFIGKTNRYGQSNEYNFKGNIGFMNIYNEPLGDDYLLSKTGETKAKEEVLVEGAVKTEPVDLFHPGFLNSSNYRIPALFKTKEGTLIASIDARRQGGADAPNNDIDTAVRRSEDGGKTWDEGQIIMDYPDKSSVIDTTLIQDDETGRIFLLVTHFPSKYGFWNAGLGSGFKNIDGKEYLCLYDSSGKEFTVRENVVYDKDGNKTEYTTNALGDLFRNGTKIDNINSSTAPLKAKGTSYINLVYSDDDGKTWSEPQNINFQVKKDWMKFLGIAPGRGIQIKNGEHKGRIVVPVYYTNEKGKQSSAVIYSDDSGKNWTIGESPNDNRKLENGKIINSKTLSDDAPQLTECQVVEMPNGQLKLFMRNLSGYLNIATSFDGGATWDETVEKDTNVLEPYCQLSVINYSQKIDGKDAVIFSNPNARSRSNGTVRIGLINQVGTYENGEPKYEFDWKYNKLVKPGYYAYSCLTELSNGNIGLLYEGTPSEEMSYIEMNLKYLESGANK

[3] = target: influenza neuraminidase N9 (GH34) (Influenza A virus, UniProt P03472); assay type: biochemical; conditions: pH 5.9
influenza neuraminidase N9 (GH34), sequence (P03472 whole entry, looked up): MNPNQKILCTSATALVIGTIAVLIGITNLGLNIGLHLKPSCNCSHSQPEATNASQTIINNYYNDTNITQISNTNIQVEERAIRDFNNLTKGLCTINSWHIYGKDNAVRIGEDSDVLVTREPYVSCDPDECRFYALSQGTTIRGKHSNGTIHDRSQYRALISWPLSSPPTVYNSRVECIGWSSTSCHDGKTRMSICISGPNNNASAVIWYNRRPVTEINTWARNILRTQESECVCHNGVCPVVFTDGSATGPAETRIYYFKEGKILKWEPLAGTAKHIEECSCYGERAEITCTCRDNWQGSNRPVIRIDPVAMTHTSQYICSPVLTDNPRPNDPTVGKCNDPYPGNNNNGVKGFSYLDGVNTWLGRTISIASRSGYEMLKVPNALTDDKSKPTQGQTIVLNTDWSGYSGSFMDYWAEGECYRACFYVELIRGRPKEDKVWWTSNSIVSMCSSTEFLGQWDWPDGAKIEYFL

[4] = target: T2, T. rangeli (GH33) sialidase (TrSA) (Trypanosoma rangeli, UniProt O44049); test: Sialidase kinetics, β-galactosidase coupled assay, T. rangeli sialidase
T2 sequence (O44049 23-660): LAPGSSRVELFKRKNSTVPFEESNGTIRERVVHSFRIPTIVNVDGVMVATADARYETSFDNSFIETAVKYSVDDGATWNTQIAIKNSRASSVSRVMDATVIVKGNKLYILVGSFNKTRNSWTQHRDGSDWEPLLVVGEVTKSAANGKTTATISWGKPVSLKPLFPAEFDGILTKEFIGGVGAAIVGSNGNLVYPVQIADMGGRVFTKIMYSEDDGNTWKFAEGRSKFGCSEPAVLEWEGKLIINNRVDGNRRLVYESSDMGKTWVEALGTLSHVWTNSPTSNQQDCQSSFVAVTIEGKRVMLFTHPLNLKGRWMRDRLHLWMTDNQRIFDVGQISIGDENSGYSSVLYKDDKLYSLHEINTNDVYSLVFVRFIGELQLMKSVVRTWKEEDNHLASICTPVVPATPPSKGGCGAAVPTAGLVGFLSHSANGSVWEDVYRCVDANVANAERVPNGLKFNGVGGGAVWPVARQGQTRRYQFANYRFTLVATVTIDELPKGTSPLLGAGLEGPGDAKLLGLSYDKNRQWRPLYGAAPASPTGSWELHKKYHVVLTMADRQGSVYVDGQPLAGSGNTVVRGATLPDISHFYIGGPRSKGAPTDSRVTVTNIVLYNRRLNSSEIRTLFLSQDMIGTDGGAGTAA

[5] = Spontaneous hydrolysis of 7-modified sialyl-galactose conjugates by 1H-NMR; assay type: physicochemical; conditions: high salt, dilute acid (25 mM HCl)

Cst-I, sequence (Q9RGF1 1-285 limits assumed): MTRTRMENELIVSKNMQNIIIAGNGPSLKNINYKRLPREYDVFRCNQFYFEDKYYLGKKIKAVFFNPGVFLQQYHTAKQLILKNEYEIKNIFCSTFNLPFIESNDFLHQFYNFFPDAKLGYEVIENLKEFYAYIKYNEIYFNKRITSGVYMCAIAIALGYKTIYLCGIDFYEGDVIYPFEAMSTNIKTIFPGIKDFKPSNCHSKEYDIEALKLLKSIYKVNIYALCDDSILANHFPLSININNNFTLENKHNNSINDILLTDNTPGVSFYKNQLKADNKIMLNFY

CC(=O)N[C@H]1[C@H]([C@H](F)[C@H](O)CO)O[C@](OP(=O)(O)OC[C@H]2O[C@@H](n3ccc(N)nc3=O)[C@H](O)[C@@H]2O)(C(=O)O)C[C@@H]1O [compound 14, 5-Acetamido-3,5,7-trideoxy-2-(hydrogen 5′-cytidylate)-7-fluoro-D-glycero-b-D-galacto-2-nonulopyranosidic acid diammonium salt]
krel [1]: 0.33 | Hydrolysis rate constant ([1]; pH 7.2): 0.313 (±0.002) h^−1 | kcat (rel) (Cst-I): 0.77 | kcat (rel) (Pm0188h): 0.54

CC(=O)N[C@H]1[C@H](C(F)(F)[C@H](O)CO)O[C@](OP(=O)(O)OC[C@H]2O[C@@H](n3ccc(N)nc3=O)[C@H](O)[C@@H]2O)(C(=O)O)C[C@@H]1O [compound 15, 5-Acetamido-3,5,7-trideoxy-2-(hydrogen 5′-cytidylate)-7,7-difluoro-D-glycero-b-D-galacto-2-nonulopyranosidic acid diammonium salt]
krel [1]: 0.01 | Hydrolysis rate constant ([1]; pH 7.2): 0.0084 (±0.0008) h^−1 | kcat (rel) (Cst-I): 0.25 | kcat (rel) (Pm0188h): 0.06

CC(=O)N[C@H]1[C@H]([C@H](O)[C@H](O)CO)O[C@](OP(=O)(O)OC[C@H]2O[C@@H](n3ccc(N)nc3=O)[C@H](O)[C@@H]2O)(C(=O)O)C[C@@H]1O [compound 16, CMP-NeuNAc, reference compound]
krel ([1]; spontaneous hydrolysis rate relative to CMP-NeuNAc): 1 | Hydrolysis rate constant ([1]; spontaneous hydrolysis, high salt pH 7.2 buffer, 1H-NMR): 0.94 (±0.01) h^−1 | kcat (rel) (Cst-I): 1 | kcat (rel) (Pm0188h): 1

CC(=O)N[C@H]1[C@H]([C@H](O)[C@H](O)CO)O[C@@](O[C@H]2[C@@H](O)[C@@H](CO)O[C@@H](Oc3ccccc3[N+](=O)[O-])[C@@H]2O)(C(=O)O)C[C@@H]1O [compound 17, ortho-Nitrophenyl (5-Acetamido-3,5-dideoxy-D-glycero-α-D-galacto-non2-ulopyranosylonic acid)-(2→3)-β-D-galactopyranoside, reference compound]
Km ([2]; pH 6.7): 800 µM | kcat ([2]; pH 6.7): 78 (±2) min^−1 | Km [3]: 830 µM | Vm [3]: 17.5 (±0.5) μM min^−1 | kcat ([4]; sialidase substrate, 30° C., pH 6.0): 83 (±4) min^−1

CC(=O)N[C@H]1[C@H]([C@H](F)[C@H](O)CO)O[C@@](O[C@H]2[C@@H](O)[C@@H](CO)O[C@@H](Oc3ccccc3[N+](=O)[O-])[C@@H]2O)(C(=O)O)C[C@@H]1O [compound 18, ortho-Nitrophenyl (5-Acetamido-3,5,7-trideoxy-7-fluoro-D-glycero-α-D-galacto-non2-ulopyranosylonic acid)-(2→3)-β-D-galactopyranoside]
saturation of enzyme by substrate [2]: Saturation was not achieved | Km [3]: 390 µM | Vm [3]: 4.6 (±0.2) μM min^−1 | saturation of enzyme by substrate [4]: Saturation was not achieved

CC(=O)NC1C(O)CC(OC2C(O)C(CO)OC(Oc3ccc4c(C)cc(=O)oc4c3)C2O)(C(=O)O)OC1C(O)C(O)CO [compound 19, 4-Methylumbelliferyl (5-acetamido-3,5-dideoxy-D-glycero-α-D-galacto-non2-ulopyranosylonic acid)-(2→3)-β-D-galactopyranoside, reference compound]
spontaneous hydrolysis rate constant [5]: 1.45 (±0.8) h-1

CC(=O)NC1C(O)CC(OC2C(O)C(CO)OC(Oc3ccc4c(C)cc(=O)oc4c3)C2O)(C(=O)O)OC1C(F)C(O)CO [compound 20, 4-Methylumbelliferyl (5-acetamido-3,5,7-trideoxy-7-fluoro-D-glycero-α-D-galacto-non2-ulopyranosylonic acid)-(23)-β-D-galactopyranoside]
spontaneous hydrolysis rate constant [5]: 0.29 (±0.01) h-1
